According to patent publication US20030096237A1, “Determination of the ability of patients to respond to a tumor treatment” (priority 2000, published 2003):

Assays:
Assay type in all cases: cell-based, human
CNCM I-2544 = assay: proliferation inhibition, 3H-Thymidine incorporation; conditions: concentration inducing at least 50% inhibition of maximal proliferation
Description: (§1) Melanoma cell lines were screened for their sensitivity to proliferation inhibition and HLA class I induction. The study was done of six cell lines (CNCM I-2544, CNCM I-2545, CNCM I-2546, CNCM I-2547, CNCM I-2548 and CNCM I-2549).
(§2) All these cell lines were cultured in RPMI medium supplemented with 10% FCS, glutamine (2 mM), sodium pyruvate (1 mM), non-essential amino acids and HEPES buffer (10 mM) (all from GIBCO Life Sciences, Paisley, UK). When confluent, the cells were passaged by trypsinization.
(§3) A number of established melanoma cell lines were assayed for their sensitivity to IFN-α by testing the capacity of IFN-α to inhibit their proliferation and to increase their surface expression of HLA class I determinants.

CNCM I-2547 = assay: as above; conditions: concentration inducing at least 50% inhibition of maximal proliferation
Description: as §1, §2, §3

CNCM I-2546 = assay: as above; conditions: concentration inducing at least 50% inhibition of maximal proliferation
Description: as §1, §2, §3

CNCM I-2548 = assay: as above; conditions: concentration inducing at least 50% inhibition of maximal proliferation
Description: as §1, §2, §3

melanoma cell lines = assay: oligonucleotide array, expression of genes encoding tumor associated antigens; conditions: six melanoma cell lines, 48 hours, 100 U/ml IFN-α
Description: The cell lines CNCM I-2544 (375), CNCM I-2545 (D10), CNCM I-2546 (15), CNCM I-2547 (51), CNCM I-2548 (59) and CNCM I-2549 (67) were cultured for 48 hours in the presence (+) or absence (−) of 100 U/ml IFN-α. The expression patterns of genes encoding tyrosinase, tyrosinase related protein-2 , pmel-17 and mart-1, HLA restricted, tumor associated antigens are reported. Grey bars refer to IFN-α sensitive cell lines and black bars refer to IFN-α resistant lines (see Table 1). Data are presented as average difference of signal intensity between match and mismatch probesets.
Cultured melanoma cells were harvested by scraping and total cellular RNA was extracted. […]
The normalized average difference (nAD) between the signals of the perfect and of the mismatch probesets for each gene was used as the expression level of a given gene. […] Based on nAD, change factors related to IFN-α exposure were also calculated. […]
Total cellular RNA was extracted from the sensitive and resistant melanoma cell lines identified above, reverse transcribed and processed for hybridization to an oligonucleotide array (Hu6800FL, PN 900183) containing probe sets derived from 7000 full-length human genes. Expression levels for each gene were calculated as normalized average difference (nAD, see materials and methods). […]

**Q.** Which “proliferation inhibition (IC50)” value (CNCM I-2544) does the source give for IFN-α here?
**A.** 100 U/ml

**Q.** What about the “proliferation inhibition (IC50)” value (CNCM I-2547) of the same substance?
**A.** 10 U/ml

**Q.** What about the “proliferation inhibition (IC50)” value (CNCM I-2546) of the same substance?
**A.** 100 U/ml

**Q.** What about the “proliferation inhibition (IC50)” value (CNCM I-2548) of the same substance?
**A.** 10 U/ml

**Q.** What about the “expression of the genes encoding TAA (MART-1/Melan-A, pmel-17, TRP-2, tyrosinase)” value (melanoma cell lines) of the same substance?
**A.** does not appear to influence
